pIC50: −log10 of the molar value.
What was measured:
HDAC2 = HDAC2 (Homo sapiens, UniProt Q92769); parameters: purchased Reaction Biology Corp. (Malvern, PA); details: previously reported; given for HDAC1/2 together; cited from earlier work
[1] = test system: VM-CUB1 and UM-UC-3 cells; assay: Nuclear morphology analysis (DAPI, rhodamine phalloidin); type: cell-based, human; details: 19i 2 μM, 24 or 48 h
Procedure: As previously described, after fixation with 4% formaldehyde, cells were permeabilized (0.3% Triton X100 in PBS, 10 min, RT), blocked (1% BSA in PBS, 30 min, RT), and subsequently incubated for 1 h at RT with 14 nM Rhodamine Phalloidin in blocking solution. Following counter-staining of nuclei with 1 μg/ml DAPI (4′,6-diamidino-2-phenylindole), cells were mounted with fluorescence mounting medium (DAKO, Glostrup, Denmark). For each treatment option and sample, 500 cells were counted and the amount of mitosis and micronuclei was quantified using a Nikon Eclipse 400 microscope (Nikon, Tokyo, Japan).

HDAC6 = HDAC6 (Homo sapiens, UniProt Q9UBN7); assay: In vitro fluorescence-based HDAC inhibition assay (Reaction Biology); details: read-out: IC50 HDAC6; experiment performed once
HDAC3 = HDAC3 (Homo sapiens, UniProt O15379); assay: as above; details: read-out: IC50 HDAC3; experiment performed once
[2] = test system: three UCCs (VM-CUB1, UM-UC-3, 639-V); assay: High-content analysis-based fluorescent live/dead assay, three UCCs together; type: cell-based, human; details: HCA live/dead assay, 72 h
Procedure: Live and dead cells were assayed by high-content analysis (HCA). […] After 72 h of treatment, cells were stained with a mixture of Hoechst 33342 (Sigma Aldrich, St. Louis, MO), calcein AM (Merck Millipore, Germany), and propidium iodide (Santa Cruz Biotechnology, Heidelberg) for cell nuclei, live and dead cells. The staining solution was replaced by PBS after 20 min. Images were acquired using ArrayScan XTI Live High Content Platform (Thermo Fisher Scientific Inc., USA) using excitation filters of 386, 485, and 560 nm for Hoechst 33342, calcein AM, and propidium iodide, respectively. The results were analyzed using HCS Studio Cellomics Scan (Thermo Fisher Scientific Inc., USA).

HDAC10 = HDAC10 (Homo sapiens, UniProt Q969S8); assay: In vitro fluorescence-based HDAC inhibition assay (Reaction Biology); details: read-out: IC50 HDAC10; experiment performed once
UM-UC-3-HDAC4 = assay: MTT viability assay (CC50); type: cell-based, human; details: UM-UC-3-HDAC4 (HDAC4-overexpressing), 72 h
Procedure: (§1) HDAC4 cDNA from the pcDNA-HDAC4-FLAG plasmid kindly provided by Tso-Pang Yao (Addgene plasmid # 30485) was cloned into the lentiviral vector puc2CL12IPwo using standard techniques, thereby creating the vector puc2CL12IPwo-HDAC4-FLAG (Additional file 1: Figure S1). Integrity of the HDAC4 coding sequence was verified by sequencing. Lentivirus production and cell transduction were performed as previously described. In brief, to produce replication-deficient lentiviruses, HEK-293T cells were transfected with helper plasmid expression construct (pCD/NL-BH [35]), envelope vector (pczVSV-G [36]), and the vector plasmids puc2CL12IPwo or puc2CL12IPwo-HDAC4-FLAG. Viral particles were harvested 48 h after transfection and used to transduce VM-CUB1 and UM-UC-3 cells using 8 μg/ml polybrene (Sigma Aldrich, St. Louis, MO). Twenty-four hours after transduction, the supernatant containing viral particles was removed and the transduced cells were selected with 4 (VM-CUB1) or 1 (UM-UC-3) μg/ml puromycin (Invitrogen, Carlsbad, CA) for 7 days. Stable overexpression of HDAC4 was confirmed by Western blot analysis of cells from several passages.
(§2) For the determination of cellular mean cytotoxic concentration (CC50), UCCs, non-malignant control cells, and HDAC4-overexpressing clones were seeded in a 96-well format and treated once with a range of defined concentrations of the HDAC inhibitors. After 72 h, viability was quantified by NAD(P)H-dependent 3-(4,5-dimethylthiazol-2-yl)-2,5-diphenyltetrazolium bromide dye reduction assay (MTT, Sigma Aldrich, St. Louis, MO). CC50 values were estimated from three independent experiments by non-linear regression analysis (four-parameter logistic equation) using Prism 4.0 (Graph Pad) or Origin 8.0 (Origin Lab, Northhampton, GB). For time-dependent proliferation experiments, viability of untreated or inhibitor-treated cells was measured after 24, 48, and 72 h.

VM-CUB1-HDAC4 = assay: MTT viability assay (CC50); type: cell-based, human; details: VM-CUB-HDAC4 (HDAC4-overexpressing), 72 h
Procedure: as §1, §2

VM-CUB1-LV = assay: MTT viability assay (CC50); type: cell-based, human; details: VM-CUB1-LV (empty vector), 72 h
Procedure: as §1, §2

UM-UC-3-LV = assay: MTT viability assay (CC50); type: cell-based, human; details: UM-UC-3-LV (empty vector), 72 h
Procedure: as §1, §2

UC cells = assay: Clonogenicity assay with Giemsa staining; type: cell-based, human; details: 2 μM 19i for 48 h, replated
Procedure: Then, depending on the cell line, 500–1000 cells were seeded in 6-cm plates, and 10 to 15 days later, colonies were washed with PBS, fixed in methanol, and stained with Giemsa (Merck Millipore, Darmstadt, Germany).

[3] = test system: UCCs VM-CUB1, UM-UC-3, and 639-V; details: 19i 2 μM, 24 and 48 h
Text: Caspase activity after inhibitor treatment was quantified by the Caspase-Glo 3/7 assay and normalized to cell viability measured by CellTiter-Glo® reagent (Promega, Mannheim, Germany) as previously described. Briefly, following exposure to inhibitors, defined aliquots of trypsinized cells were transferred to 96-well plates for viability and caspase-3/7 measurements according to the manufacturer’s protocol.

Chain of HDAC2 (Q92769 whole entry): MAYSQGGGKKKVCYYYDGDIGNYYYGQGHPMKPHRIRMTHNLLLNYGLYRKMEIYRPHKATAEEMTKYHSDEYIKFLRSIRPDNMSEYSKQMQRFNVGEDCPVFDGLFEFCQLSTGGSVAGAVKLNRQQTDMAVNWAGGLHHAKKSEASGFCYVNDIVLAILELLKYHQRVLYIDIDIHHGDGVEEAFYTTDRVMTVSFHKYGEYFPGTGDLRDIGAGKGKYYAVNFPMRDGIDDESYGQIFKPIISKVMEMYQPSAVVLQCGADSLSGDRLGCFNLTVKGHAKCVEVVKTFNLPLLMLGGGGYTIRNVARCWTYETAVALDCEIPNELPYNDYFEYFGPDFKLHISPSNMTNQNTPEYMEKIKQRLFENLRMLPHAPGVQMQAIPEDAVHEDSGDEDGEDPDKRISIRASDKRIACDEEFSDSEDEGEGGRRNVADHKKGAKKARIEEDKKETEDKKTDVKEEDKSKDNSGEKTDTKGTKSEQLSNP
Chain of HDAC3 (O15379 whole entry): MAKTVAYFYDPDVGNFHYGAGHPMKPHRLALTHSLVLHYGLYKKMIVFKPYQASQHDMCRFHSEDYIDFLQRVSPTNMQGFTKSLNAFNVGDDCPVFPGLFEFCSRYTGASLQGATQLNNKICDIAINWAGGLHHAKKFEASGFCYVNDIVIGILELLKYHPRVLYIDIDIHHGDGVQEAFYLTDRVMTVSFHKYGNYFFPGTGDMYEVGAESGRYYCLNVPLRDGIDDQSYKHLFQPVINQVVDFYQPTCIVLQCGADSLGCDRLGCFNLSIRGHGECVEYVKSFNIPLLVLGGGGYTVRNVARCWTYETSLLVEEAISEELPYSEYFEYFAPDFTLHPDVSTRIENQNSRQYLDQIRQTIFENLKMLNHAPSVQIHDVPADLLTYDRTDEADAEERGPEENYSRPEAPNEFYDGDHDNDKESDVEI
Chain of HDAC3 (Q9Y618 395-489 partner limits assumed): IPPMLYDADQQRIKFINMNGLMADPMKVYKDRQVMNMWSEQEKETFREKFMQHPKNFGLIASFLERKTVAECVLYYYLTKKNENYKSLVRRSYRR
Chain of HDAC10 (Q969S8 whole entry): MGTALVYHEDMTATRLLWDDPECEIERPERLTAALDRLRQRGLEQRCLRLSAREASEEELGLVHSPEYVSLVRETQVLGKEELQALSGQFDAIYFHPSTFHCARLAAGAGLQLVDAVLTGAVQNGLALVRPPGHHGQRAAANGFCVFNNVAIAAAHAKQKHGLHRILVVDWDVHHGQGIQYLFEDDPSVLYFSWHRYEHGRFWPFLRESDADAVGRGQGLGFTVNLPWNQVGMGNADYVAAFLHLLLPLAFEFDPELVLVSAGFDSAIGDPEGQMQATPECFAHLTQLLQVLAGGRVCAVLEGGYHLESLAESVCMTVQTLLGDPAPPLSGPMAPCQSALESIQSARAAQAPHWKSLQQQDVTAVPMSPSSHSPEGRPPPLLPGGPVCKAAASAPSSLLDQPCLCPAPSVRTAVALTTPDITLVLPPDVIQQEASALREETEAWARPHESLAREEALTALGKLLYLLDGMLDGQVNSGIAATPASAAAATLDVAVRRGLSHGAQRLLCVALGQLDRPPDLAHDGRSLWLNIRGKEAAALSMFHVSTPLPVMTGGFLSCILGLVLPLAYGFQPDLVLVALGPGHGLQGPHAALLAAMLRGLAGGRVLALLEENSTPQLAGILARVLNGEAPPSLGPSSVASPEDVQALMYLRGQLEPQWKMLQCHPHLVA
Chain of HDAC6 (Q9UBN7 whole entry): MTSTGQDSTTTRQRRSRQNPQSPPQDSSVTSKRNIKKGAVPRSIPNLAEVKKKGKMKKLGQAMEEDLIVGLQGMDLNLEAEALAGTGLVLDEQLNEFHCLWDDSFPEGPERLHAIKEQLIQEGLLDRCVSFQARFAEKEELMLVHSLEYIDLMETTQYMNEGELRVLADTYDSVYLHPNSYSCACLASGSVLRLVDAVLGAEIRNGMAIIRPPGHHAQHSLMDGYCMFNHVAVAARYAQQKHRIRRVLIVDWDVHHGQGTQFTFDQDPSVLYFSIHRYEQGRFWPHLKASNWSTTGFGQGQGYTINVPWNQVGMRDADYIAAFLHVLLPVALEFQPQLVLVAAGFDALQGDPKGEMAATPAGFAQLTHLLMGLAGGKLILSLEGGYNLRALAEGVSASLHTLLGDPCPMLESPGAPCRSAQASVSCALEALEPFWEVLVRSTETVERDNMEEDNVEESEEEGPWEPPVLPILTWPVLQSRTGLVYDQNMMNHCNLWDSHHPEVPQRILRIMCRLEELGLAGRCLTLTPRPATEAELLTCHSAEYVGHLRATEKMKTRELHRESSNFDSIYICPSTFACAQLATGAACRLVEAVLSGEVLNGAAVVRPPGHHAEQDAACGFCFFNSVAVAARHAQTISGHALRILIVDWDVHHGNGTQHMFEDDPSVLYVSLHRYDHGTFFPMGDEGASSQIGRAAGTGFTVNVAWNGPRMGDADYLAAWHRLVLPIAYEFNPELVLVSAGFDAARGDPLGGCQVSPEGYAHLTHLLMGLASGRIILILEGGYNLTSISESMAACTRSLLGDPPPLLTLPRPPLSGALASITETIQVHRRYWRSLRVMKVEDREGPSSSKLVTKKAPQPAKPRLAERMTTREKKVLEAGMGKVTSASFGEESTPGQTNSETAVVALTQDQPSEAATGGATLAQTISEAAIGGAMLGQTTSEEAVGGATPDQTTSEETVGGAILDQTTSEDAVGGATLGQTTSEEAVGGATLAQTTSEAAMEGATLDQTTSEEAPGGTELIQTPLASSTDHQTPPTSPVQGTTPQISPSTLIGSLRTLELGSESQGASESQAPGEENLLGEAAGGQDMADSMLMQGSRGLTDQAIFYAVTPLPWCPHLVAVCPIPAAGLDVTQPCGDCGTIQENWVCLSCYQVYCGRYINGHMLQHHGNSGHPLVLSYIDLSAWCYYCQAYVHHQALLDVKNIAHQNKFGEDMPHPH

## Cc1cc(C)cc(C(=O)NOCCCCCC(=O)NO)c1 [19i]
HDAC2
  in vitro IC50 HDAC2: sub-micromolar
[1]
  number of mitoses: decreased sharply
  percentage of cells with micronuclei: increased
HDAC6
  pIC50: 7.49
HDAC3
  pIC50: 6.63
[2]
  CC50: < 1000 nM
HDAC10
  pIC50: 6.31
UM-UC-3-HDAC4
  CC50: 740 nM
VM-CUB1-HDAC4
  CC50: 630 nM
VM-CUB1-LV
  CC50: 950 nM
UM-UC-3-LV
  CC50: 790 nM
UC cells
  clonogenic potential: impaired the clonogenic potential
[3]
  caspase 3/7 activity: significant, albeit moderately increased
